Numbered stars: 1 amine (or outer) side, 2 acyl side, 3 side chain; on linkers, the order of the positions; unused ones are H or OH. Side chains are listed from the residue outwards. Peptide text beside a SMILES is read from it. * marks the point of attachment. C18 diacid = O=C(O)CCCCCCCCCCCCCCCCC(=O)*; γGlu = O=C(O)[C@H](CCC(=O)[*:2])N[*:1]; AEEA = NCCOCCOCC(=O)O
molecular target: glucagon receptor (Homo sapiens, UniProt P47871); test: cell-based
Sequence (P47871 26-477): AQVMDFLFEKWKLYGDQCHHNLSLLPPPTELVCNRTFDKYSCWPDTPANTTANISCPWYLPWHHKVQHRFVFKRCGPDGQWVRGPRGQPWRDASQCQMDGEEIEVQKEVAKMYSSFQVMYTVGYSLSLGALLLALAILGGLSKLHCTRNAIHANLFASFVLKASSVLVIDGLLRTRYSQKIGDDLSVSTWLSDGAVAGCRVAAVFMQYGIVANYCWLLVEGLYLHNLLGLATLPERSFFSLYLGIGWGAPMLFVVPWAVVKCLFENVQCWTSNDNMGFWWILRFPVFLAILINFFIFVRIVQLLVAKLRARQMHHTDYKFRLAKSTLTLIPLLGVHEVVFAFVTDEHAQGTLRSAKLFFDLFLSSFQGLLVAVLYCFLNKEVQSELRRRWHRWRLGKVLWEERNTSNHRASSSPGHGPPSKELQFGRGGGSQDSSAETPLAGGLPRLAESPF
Experimental: The cells (14000 per well) were incubated (37° C., 5% CO2) overnight in 384-well plates. Next day the cells were loaded with a calcium responsive dye that only distributed into the cytoplasm. Probenecid, an inhibitor of the organic anion transporter, was added to prevent the dye from leaving the cell. A PDE inhibitor was added to prevent formatted cAMP from being degraded. […] End point data were collected after 6 minutes. An increase in intracellular cAMP was proportional to an increased in calcium concentrations in the cytoplasm. […] EC50-values were calculated in Prism5.

Structure (SMILES) | EC50 [nM]
CC(C)C[C@H](NC(=O)[C@H](Cc1ccc(O)cc1)NC(=O)[C@H](CCCCN)NC(=O)[C@H](CO)NC(=O)[C@H](Cc1ccc(O)cc1)NC(=O)[C@H](CC(=O)O)NC(=O)[C@H](CO)NC(=O)[C@@H](NC(=O)[C@H](Cc1ccccc1)NC(=O)[C@@H](NC(=O)CNC(=O)[C@H](CCC(N)=O)NC(=O)[C@H](CO)NC(=O)[C@@H](N)Cc1c[nH]cn1)[C@@H](C)O)[C@@H](C)O)C(=O)N[C@@H](CC(=O)O)C(=O)N[C@@H](CO)C(=O)N[C@@H](CCCNC(=N)N)C(=O)N[C@@H](CCCNC(=N)N)C(=O)N[C@@H](C)C(=O)N[C@@H](CCC(N)=O)C(=O)N[C@@H](CCC(=O)O)C(=O)N[C@@H](Cc1ccccc1)C(=O)N[C@H](C(=O)N[C@@H](CCCCNC(=O)COCCOCCNC(=O)COCCOCCNC(=O)CC[C@H](NC(=O)CCCCCCCCCCCCCCCCC(=O)O)C(=O)O)C(=O)N[C@@H](CCCNC(=N)N)C(=O)N[C@@H](CC(C)C)C(=O)N[C@@H](CC(C)C)C(=O)N[C@@H](CC(N)=O)C(=O)N[C@H](C(=O)O)[C@@H](C)O)C(C)C [Example 58, N^ε24-([2-[2-[2-[[2-[2-[2-[[(4S)-5-hydroxy-4-[(18-hydroxy-18-oxooctadecanoyl)amino]-5-oxopentanoyl]amino]ethoxy]ethoxy]acetyl]amino]ethoxy]ethoxy]acetyl]) [Glu^21,Lys^24,Arg^25,Leu^27] Glucagon] | 0.074
CC(C)C[C@H](NC(=O)[C@H](Cc1ccc(O)cc1)NC(=O)[C@H](CCCCN)NC(=O)[C@H](CO)NC(=O)[C@H](Cc1ccc(O)cc1)NC(=O)[C@H](CC(=O)O)NC(=O)[C@H](CO)NC(=O)[C@@H](NC(=O)[C@H](Cc1ccccc1)NC(=O)[C@@H](NC(=O)CNC(=O)[C@H](CCC(N)=O)NC(=O)[C@H](CO)NC(=O)[C@@H](N)Cc1c[nH]cn1)[C@@H](C)O)[C@@H](C)O)C(=O)N[C@@H](CC(=O)O)C(=O)N[C@@H](CO)C(=O)N[C@@H](CCCNC(=N)N)C(=O)N[C@@H](CCCNC(=N)N)C(=O)N[C@@H](C)C(=O)N[C@@H](CCC(N)=O)C(=O)N[C@@H](CC(=O)O)C(=O)N[C@@H](Cc1ccccc1)C(=O)N[C@H](C(=O)N[C@@H](CCC(N)=O)C(=O)N[C@@H](Cc1c[nH]c2ccccc12)C(=O)N[C@@H](CC(C)C)C(=O)N[C@@H](CC(C)C)C(=O)N[C@@H](CCCCNC(=O)CC[C@H](NC(=O)COCCOCCNC(=O)COCCOCCNC(=O)CC[C@H](NC(=O)CC[C@H](NC(=O)CCCCCCCCCCCCCCCCC(=O)O)C(=O)O)C(=O)O)C(=O)O)C(=O)N[C@H](C(=O)O)[C@@H](C)O)C(C)C [Example 66, N^ε28-[(4S)-4-carboxy-4-[[2-[2-[2-[[2-[2-[2-[[(4S)-4-carboxy-4-[[(4S)-4-carboxy-4-(17-carboxyheptadecanoylamino)butanoyl]amino]butanoyl]amino]ethoxy]ethoxy]acetyl]amino]ethoxy]ethoxy]acetyl]amino]butanoyl]-[Leu^27,Lys^28]-Glucagon] | 0.093
CC(C)C[C@H](NC(=O)[C@H](Cc1ccc(O)cc1)NC(=O)[C@H](CCCCN)NC(=O)[C@H](CO)NC(=O)[C@H](Cc1ccc(O)cc1)NC(=O)[C@H](CC(=O)O)NC(=O)[C@H](CO)NC(=O)[C@@H](NC(=O)[C@H](Cc1ccccc1)NC(=O)[C@@H](NC(=O)CNC(=O)[C@H](CCC(N)=O)NC(=O)[C@H](CO)NC(=O)[C@@H](N)Cc1c[nH]cn1)[C@@H](C)O)[C@@H](C)O)C(=O)N[C@@H](CC(=O)O)C(=O)N[C@@H](CO)C(=O)N[C@@H](CCCNC(=N)N)C(=O)N[C@@H](CCCNC(=N)N)C(=O)N[C@@H](C)C(=O)N[C@@H](CCC(N)=O)C(=O)N[C@@H](CC(=O)O)C(=O)N[C@@H](Cc1ccccc1)C(=O)N[C@H](C(=O)N[C@@H](CCC(N)=O)C(=O)N[C@@H](Cc1c[nH]c2ccccc12)C(=O)N[C@@H](CC(C)C)C(=O)N[C@@H](CC(C)C)C(=O)N[C@@H](CCCCNC(=O)COCCOCCNC(=O)COCCOCCNC(=O)CC[C@H](NC(=O)CC[C@H](NC(=O)CC[C@H](NC(=O)CCCCCCCCCCCCCCCCC(=O)O)C(=O)O)C(=O)O)C(=O)O)C(=O)N[C@H](C(=O)O)[C@@H](C)O)C(C)C [Example 67, N^ε28-[2-[2-[2-[[2-[2-[2-[[(4S)-4-carboxy-4-[[(4S)-4-carboxy-4-[[(4S)-4-carboxy-4-(17-carboxyheptadecanoylamino)butanoyl]amino]butanoyl]amino]butanoyl]amino]ethoxy]ethoxy]acetyl]amino]ethoxy]ethoxy]acetyl]-[Leu^27,Lys^28]-Glucagon] | 0.116
CC(C)C[C@H](NC(=O)[C@H](Cc1ccc(O)cc1)NC(=O)[C@H](CCCCN)NC(=O)[C@H](CO)NC(=O)[C@H](Cc1ccc(O)cc1)NC(=O)[C@H](CC(=O)O)NC(=O)[C@H](CO)NC(=O)[C@@H](NC(=O)[C@H](Cc1ccccc1)NC(=O)[C@@H](NC(=O)CNC(=O)[C@H](CCC(N)=O)NC(=O)[C@H](CO)NC(=O)[C@@H](N)Cc1c[nH]cn1)[C@@H](C)O)[C@@H](C)O)C(=O)N[C@@H](CC(=O)O)C(=O)N[C@@H](CO)C(=O)N[C@@H](CCCNC(=N)N)C(=O)N[C@@H](CCCNC(=N)N)C(=O)N[C@@H](C)C(=O)N[C@@H](CCC(N)=O)C(=O)N[C@@H](CC(=O)O)C(=O)N[C@@H](Cc1ccccc1)C(=O)N[C@H](C(=O)N[C@@H](CCCCNC(=O)CC[C@H](NC(=O)COCCOCCNC(=O)COCCOCCNC(=O)CC[C@H](NC(=O)CC[C@H](NC(=O)CCCCCCCCCCCCCCCCC(=O)O)C(=O)O)C(=O)O)C(=O)O)C(=O)N[C@@H](Cc1c[nH]c2ccccc12)C(=O)N[C@@H](CC(C)C)C(=O)N[C@@H](CC(C)C)C(=O)N[C@@H](CO)C(=O)N[C@H](C(=O)O)[C@@H](C)O)C(C)C [Example 68, N^ε24-[(4S)-4-carboxy-4-[[2-[2-[2-[[2-[2-[2-[[(4S)-4-carboxy-4-[[(4S)-4-carboxy-4-(17-carboxyheptadecanoylamino)butanoyl]amino]butanoyl]amino]ethoxy]ethoxy]acetyl]amino]ethoxy]ethoxy]acetyl]amino]butanoyl]-[Lys^24,Leu^27,Ser^28]-Glucagon] | 0.106
CC(C)C[C@H](NC(=O)[C@H](Cc1ccc(O)cc1)NC(=O)[C@H](CCCCN)NC(=O)[C@H](CO)NC(=O)[C@H](Cc1ccc(O)cc1)NC(=O)[C@H](CC(=O)O)NC(=O)[C@H](CO)NC(=O)[C@@H](NC(=O)[C@H](Cc1ccccc1)NC(=O)[C@@H](NC(=O)CNC(=O)[C@H](CCC(N)=O)NC(=O)[C@H](CO)NC(=O)[C@@H](N)Cc1c[nH]cn1)[C@@H](C)O)[C@@H](C)O)C(=O)N[C@@H](CC(=O)O)C(=O)N[C@@H](CO)C(=O)N[C@@H](CCCNC(=N)N)C(=O)N[C@@H](CCCNC(=N)N)C(=O)N[C@@H](C)C(=O)N[C@@H](CCC(N)=O)C(=O)N[C@@H](CC(=O)O)C(=O)N[C@@H](Cc1ccccc1)C(=O)N[C@H](C(=O)N[C@@H](CCCCNC(=O)COCCOCCNC(=O)COCCOCCNC(=O)CC[C@H](NC(=O)CC[C@H](NC(=O)CC[C@H](NC(=O)CCCCCCCCCCCCCCCCC(=O)O)C(=O)O)C(=O)O)C(=O)O)C(=O)N[C@@H](Cc1c[nH]c2ccccc12)C(=O)N[C@@H](CC(C)C)C(=O)N[C@@H](CC(C)C)C(=O)N[C@@H](CO)C(=O)N[C@H](C(=O)O)[C@@H](C)O)C(C)C [Example 69, N^ε24-[2-[2-[2-[[2-[2-[2-[[(4S)-4-carboxy-4-[[(4S)-4-carboxy-4-[[(4S)-4-carboxy-4-(17-carboxyheptadecanoylamino)butanoyl]amino]butanoyl]amino]butanoyl]amino]ethoxy]ethoxy]acetyl]amino]ethoxy]ethoxy]acetyl]-[Lys^24,Leu^27,Ser^28]-Glucagon] | 0.115
CC(C)C[C@H](NC(=O)[C@H](Cc1ccc(O)cc1)NC(=O)[C@H](CCCCN)NC(=O)[C@H](CO)NC(=O)[C@H](Cc1ccc(O)cc1)NC(=O)[C@H](CC(=O)O)NC(=O)[C@H](CO)NC(=O)[C@@H](NC(=O)[C@H](Cc1ccccc1)NC(=O)[C@@H](NC(=O)CNC(=O)[C@H](CCC(N)=O)NC(=O)[C@H](CO)NC(=O)[C@@H](N)Cc1c[nH]cn1)[C@@H](C)O)[C@@H](C)O)C(=O)N[C@@H](CC(=O)O)C(=O)N[C@@H](CCCCNC(=O)CC[C@H](NC(=O)CC[C@H](NC(=O)COCCOCCNC(=O)COCCOCCNC(=O)CC[C@H](NC(=O)CCCCCCCCCCCCCCCCC(=O)O)C(=O)O)C(=O)O)C(=O)O)C(=O)N[C@@H](CCCNC(=N)N)C(=O)N[C@@H](CCCNC(=N)N)C(=O)N[C@@H](C)C(=O)N[C@@H](CCC(N)=O)C(=O)N[C@@H](CC(=O)O)C(=O)N[C@@H](Cc1ccccc1)C(=O)N[C@H](C(=O)N[C@@H](CCC(N)=O)C(=O)N[C@@H](Cc1c[nH]c2ccccc12)C(=O)N[C@@H](CC(C)C)C(=O)N[C@@H](CC(C)C)C(=O)N[C@@H](CC(N)=O)C(=O)N[C@H](C(=O)O)[C@@H](C)O)C(C)C [Example 70, N^ε16-[(4S)-4-carboxy-4-[[(4S)-4-carboxy-4-[[2-[2-[2-[[2-[2-[2-[[(4S)-4-carboxy-4-(17-carboxyheptadecanoylamino)butanoyl]amino]ethoxy]ethoxy]acetyl]amino]ethoxy]ethoxy]acetyl]amino]butanoyl]amino]butanoyl]-[Lys^16,Leu^27]-Glucagon] (H-HSQGTFTSDYSKYLDK([γGlu-γGlu-AEEA-AEEA-γGlu-C18 diacid])RRAQDFVQWLLNT-OH; N-terminus and C-terminus assumed) | 0.105

Reference: patent US20160271263A1 (Novo Nordisk A/S, priority 2010, published 2016)
